Laboratory results reported in patent publication US7459450B2, “Neuropeptide receptor modulators” (Schering Corporation, priority 2004, dated 2008).

target: T1, Human NPY Y1 receptors (Homo sapiens, UniProt P25929); test: NPY Receptor Binding Assay; details: not given
T1 construct: expressed in transfected cells; host or cells: CHO cells (membrane protein)
T1 sequence (P25929 1-384): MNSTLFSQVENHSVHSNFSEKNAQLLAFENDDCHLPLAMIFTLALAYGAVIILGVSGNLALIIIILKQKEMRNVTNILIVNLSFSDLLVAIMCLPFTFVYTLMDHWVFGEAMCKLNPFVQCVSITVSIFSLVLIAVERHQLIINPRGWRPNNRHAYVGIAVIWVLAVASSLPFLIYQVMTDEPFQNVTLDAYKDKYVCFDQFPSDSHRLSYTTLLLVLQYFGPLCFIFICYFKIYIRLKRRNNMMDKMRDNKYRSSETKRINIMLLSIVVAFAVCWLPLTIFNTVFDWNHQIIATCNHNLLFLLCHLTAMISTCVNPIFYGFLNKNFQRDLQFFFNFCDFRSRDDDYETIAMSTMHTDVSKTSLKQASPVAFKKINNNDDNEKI
Experimental: NPY Receptor Binding Assay
Human NPY Y1 receptors were expressed in CHO cells. Binding assays were performed in 50 mM HEPES, pH 7.2, 2.5 mM CaCl2, 1 mM MgCl2 and 0.1% BSA containing 5-10 μg of membrane protein and 0.1 nM […] in a total volume of 200 μl. Non-specific binding was determined in the presence of 1 μM NPY. The reaction mixtures were incubated for 90 minutes at room temperature then filtered through Millipore MAFC glass fiber filter plates which had been pre-soaked in 0.5% polyethleneimine. The filters were washed with phosphate-buffered saline, and radioactivity was measured in a Packard TopCount scintillation counter.

Ki [µM] | Structure (SMILES)
> 10 | COc1cccc2sc(NCCc3ccc(/N=C4/N[C@@H](CC(C)C)C(=O)S4)cc3)nc12 [Example 364]
> 10 | CS(=O)(=O)c1ccc2nc(NCCc3ccc(/N=C4\SC(=O)[C@@H]5CCCN45)cc3)sc2c1 [Example 352]
> 10 | CC(C)[C@@H]1N/C(=N/c2ccc(CCNc3nc4ccc(F)cc4s3)cc2)SC1=O [Example 374]
> 10 | CSCC[C@@H]1N/C(=N/c2ccc(CCNc3nc4ccc(S(C)(=O)=O)cc4s3)cc2)SC1=O [Example 388]
> 10 | CC(C)C[C@@H]1N/C(=N\c2ccccc2CCNc2nc3ccccc3s2)SC1=O [Example 411]
> 10 | Cc1ccc2nc(NCCc3ccc(/N=C4/N[C@@H](C)C(=O)S4)cc3)sc2c1 [Example 381]
> 10 | O=C1SC(=Nc2ccc(CCNc3nc4ccc(Cl)cc4s3)cc2)N2CCCC12 (stereo not shown) [Example 385]
> 10 | CS(=O)(=O)c1ccc2nc(NCCc3ccc(/N=C4/N[C@@H](CC(=O)O)C(=O)S4)cc3)sc2c1 [Example 353]
> 10 | Cc1ccc2nc(NCCc3ccc(/N=C4/N[C@@H](C(C)C)C(=O)S4)cc3)sc2c1 [Example 378]
> 10 | CC(C)C1NC(=Nc2ccccc2CCNc2nc3ccccc3s2)SC1=O (stereo not shown) [Example 404]
> 10 | O=C1CN/C(=N\c2ccccc2CCNc2nc3ccccc3s2)S1 [Example 412]
> 10 | O=C(O)C[C@@H]1N/C(=N/c2ccc(CCNc3nc4ccc([N+](=O)[O-])cc4s3)cc2)SC1=O [Example 342]
> 10 | Cc1ccc2nc(NCCc3ccc(/N=C4/N[C@@H](CC(=O)O)C(=O)S4)cc3)sc2c1 [Example 380]

More lines, now with the values behind:

Structure (SMILES) | Ki [µM]
CC(C)[C@@H]1N/C(=N/c2ccc(CCNc3nc4ccc(S(C)(=O)=O)cc4s3)cc2)SC1=O [Example 359] | > 10
O=C1S/C(=N\c2ccc(CCNc3nc4ccc([N+](=O)[O-])cc4s3)cc2)N[C@H]1Cc1ccccc1 [Example 355] | > 10
O=C1S/C(=N\c2ccc(CCNc3nc4cc(Cl)c(Cl)cc4s3)cc2)N[C@H]1Cc1ccccc1 [Example 360] | > 10
O=C(O)C[C@@H]1N/C(=N/c2ccc(CCNc3nc4ccc(F)cc4s3)cc2)SC1=O [Example 402] | > 10
CC(C)[C@@H]1N/C(=N/c2ccc(CCNc3nc4ccc(Cl)cc4s3)cc2)SC1=O [Example 384] | > 10
COc1ccc2nc(NCCc3ccc(/N=C4/N[C@@H](C(C)C)C(=O)S4)cc3)sc2c1 [Example 346] | > 10
Cc1cccc2sc(NCCc3ccc(/N=C4/N[C@@H](Cc5ccccc5)C(=O)S4)cc3)nc12 [Example 369] | > 10
COc1cccc2sc(NCCc3ccc(/N=C4/N[C@@H](C(C)C)C(=O)S4)cc3)nc12 [Example 365] | > 10
COc1ccc2nc(NCCc3ccc(/N=C4/N[C@@H](CC(C)C)C(=O)S4)cc3)sc2c1 [Example 345] | > 10
C[C@@H]1N/C(=N/c2ccc(CCNc3nc4ccc(Cl)cc4s3)cc2)SC1=O [Example 386] | > 10
O=C(O)C[C@@H]1N/C(=N\c2cccc(CCNc3nc4ccccc4s3)c2)SC1=O [Example 409] | > 10
O=C1S/C(=N\c2ccc(CCNc3nc4ccccc4s3)cc2)N2CCC[C@@H]12 [Example 398] | > 10

same assay, conditions: Procedure A compounds, rated A/B/C

Ki [µM] | Structure (SMILES)
1 to 10 | Clc1ccc2nc(NCCc3ccc(NC4=NCCS4)cc3)sc2c1 [Example 19]
1 to 10 | Cc1ccc2nc(NCCc3ccc(NC4=NCCS4)cc3)sc2c1 [Example 17]

same assay, conditions: Procedure B compounds, rated A/B/C

Ki [µM] | Structure (SMILES)
> 10 | CCOC(=O)N1C(Nc2ccc(CCNc3nc4ccccc4s3)cc2)=NC(C)C1c1ccccc1 (stereo not shown) [Example 28]

same assay, conditions: Procedure C compounds, rated A/B/C

Ki [µM] | Structure (SMILES)
> 10 | CSCC[C@@H]1N=C(Nc2ccc(CCNc3nc4ccccc4s3)cc2)N(C(=O)c2ccccc2)C1=O [Example 54]
> 10 | O=C(O)CC[C@@H]1N=C(Nc2ccc(CCNc3nc4ccccc4s3)cc2)N(C(=O)c2ccccc2)C1=O [Example 51]
> 10 | O=C(O)C[C@@H]1N=C(Nc2ccc(CCNc3nc4ccccc4s3)cc2)N(C(=O)c2ccccc2)C1=O [Example 49]

same assay, conditions: Procedure D compound, rated A/B/C

Ki [µM] | Structure (SMILES)
1 to 10 | COC1CN=C(Nc2ccc(CCNc3nc4ccccc4s3)cc2)S1 (stereo not shown) [compound 61]

same assay, conditions: Procedure E compounds, rated A/B/C

Ki [µM] | Structure (SMILES)
1 to 10 | CC(C)[C@H]1CS/C(=N\c2ccc(CCNc3nc4ccc(Cl)cc4s3)cc2)N1 [Example 107]
> 10 | COc1ccc2nc(NCCc3ccc(/N=C4/N[C@@H](c5ccccc5)CS4)cc3)sc2c1 [Example 217]
> 10 | Cc1ccc2nc(NCCc3ccc(/N=C4\SC5Cc6ccccc6[C@@H]5N4C4CC4)cc3)sc2c1 (stereo partly shown) [Example 224]
< 1 | CC(C)C1CCSC(Nc2ccc(CCNc3nc4ccccc4s3)cc2)=N1 (stereo not shown) [Example 334]
1 to 10 | CS(=O)(=O)c1ccc2nc(NCCc3ccc(NC4=NCCCS4)cc3)sc2c1 [Example 65]
> 10 | CC1CN/C(=N/c2ccc(CCNc3nc4cc(Cl)c(Cl)cc4s3)cc2)S1 (stereo not shown) [Example 190]
1 to 10 | Cc1ccc2nc(NCCc3ccc(/N=C4/N[C@@H](Cc5ccccc5)CS4)cc3)sc2c1 [Example 87]
< 1 | c1ccc2sc(NCCc3ccc(/N=C4/N[C@@H](Cc5c[nH]cn5)CS4)cc3)nc2c1 [Example 270]
< 1 | Cc1ccc2nc(NCCc3ccc(N=C4NCCCS4)cc3)sc2c1 [Example 205]
< 1 | CCCCC1CS/C(=N\c2ccc(CCNc3nc4ccc(OC)cc4s3)cc2)N1 (stereo not shown) [Example 215]
> 10 | c1cc(CCNc2nc3ccccc3s2)cc(/N=C2\N[C@H]3c4ccccc4CC3S2)c1 (stereo partly shown) [Example 184]
> 10 | Clc1cc2nc(NCCc3ccc(/N=C4/NC(c5ccccc5)CCS4)cc3)sc2cc1Cl (stereo not shown) [Example 66]
> 10 | Cc1cccc2sc(NCCc3ccc(/N=C4/NCC(C)S4)cc3)nc12 (stereo not shown) [Example 327]
< 1 | CCC1CS/C(=N\c2ccc(CCNc3nc4ccccc4s3)cc2)N1 (stereo not shown) [Example 263]
< 1 | Brc1ccc(C2CCSC(Nc3ccc(CCNc4nc5ccccc5s4)cc3)=N2)cc1 (stereo not shown) [Example 335]

The next lines start with the molecule.

Structure (SMILES) | Ki [µM]
Cc1ccc2nc(NCCc3ccc(/N=C4\SC5Cc6ccccc6[C@@H]5N4C)cc3)sc2c1 (stereo partly shown) [Example 222] | > 10
CC1(C)CS/C(=N\c2ccc(CCNc3nc4ccc([N+](=O)[O-])cc4s3)cc2)N1 [Example 76] | > 10
Cc1cccc2sc(NCCc3ccc(/N=C4/NC(c5ccccc5)CCS4)cc3)nc12 (stereo not shown) [Example 208] | > 10
Cc1ccc2nc(NCCc3ccc(/N=C4/NCC(c5ccccc5)S4)cc3)sc2c1 (stereo not shown) [Example 90] | > 10
C[C@@H]1CS/C(=N\c2ccc(CCNc3nc4ccccc4s3)cc2)N1 [Example 268] | < 1
COc1cccc2sc(NCCc3ccc(/N=C4/NCCCS4)cc3)nc12 [Example 207] | > 10
CCCC1CS/C(=N\c2ccc(CCNc3nc4ccc(Cl)cc4s3)cc2)N1 (stereo not shown) [Example 105] | < 1
CC1CN/C(=N/c2ccc(CCNc3nc4ccccc4s3)cc2)S1 (stereo not shown) [Example 193] | > 10
CC[C@@H]1CS/C(=N\c2ccc(CCNc3nc4ccc(Cl)cc4s3)cc2)N1 [Example 110] | < 1
CC1(C)CS/C(=N\c2ccc(CCNc3nc4ccc(S(C)(=O)=O)cc4s3)cc2)N1 [Example 118] | 1 to 10
c1ccc(/N=C2\N[C@H]3c4ccccc4CC3S2)c(CCNc2nc3ccccc3s2)c1 (stereo partly shown) [Example 183] | > 10
Clc1ccc2nc(NCCc3ccc(/N=C4/N[C@@H](Cc5c[nH]cn5)CS4)cc3)sc2c1 [Example 238] | 1 to 10
c1ccc(C2CN/C(=N\c3cccc(CCNc4nc5ccccc5s4)c3)S2)cc1 (stereo not shown) [Example 186] | > 10
COc1ccc2nc(NCCc3ccc(/N=C4/NCC(C)S4)cc3)sc2c1 (stereo not shown) [Example 322] | > 10
CS(=O)(=O)c1ccc2nc(NCCc3ccc(/N=C4/N[C@H]5c6ccccc6CC5S4)cc3)sc2c1 (stereo partly shown) [Example 332] | > 10
COc1ccc2nc(NCCc3ccc(/N=C4\SC5Cc6ccccc6[C@@H]5N4C)cc3)sc2c1 (stereo partly shown) [Example 77] | > 10
CS(=O)(=O)c1ccc2nc(NCCc3ccc(/N=C4/NC(c5ccccc5)CCS4)cc3)sc2c1 (stereo not shown) [Example 64] | 1 to 10

same assay, conditions: Procedure G compounds, rated A/B/C

Ki [µM] | Structure (SMILES)
> 10 | CCc1csc(Nc2ccc(CCNc3nc4ccccc4s3)cc2)n1 [Example 430]
> 10 | Cc1ccc(-c2csc(Nc3ccc(CCNc4nc5ccccc5s4)cc3)n2)cc1 [Example 417]
> 10 | c1ccc2sc(NCCc3ccc(Nc4nccs4)cc3)nc2c1 [Example 416]
> 10 | Cc1nc(Nc2ccc(CCNc3nc4ccccc4s3)cc2)sc1C(=O)N(C)C [Example 437]

same assay, conditions: Procedure H compounds, rated A/B/C

Ki [µM] | Structure (SMILES)
> 10 | CCCCCC1SC(Nc2ccc(CCNc3nc4ccccc4s3)cc2)=NC1=O (stereo not shown) [Example 447]
> 10 | O=C1N=C(Nc2ccc(CCNc3nc4ccccc4s3)cc2)SC1c1ccccc1 (stereo not shown) [Example 444]

same assay, conditions: Procedure I compounds, column head blank, rated A/B/C

Ki [µM] | Structure (SMILES)
1 to 10 | c1ccc(C2CCCC(Nc3ccc(CCNc4nc5ccccc5s4)cc3)=N2)cc1 (stereo not shown) [Example 449]

same assay, conditions: Table 1, rated A/B/C

Ki [µM] | Structure (SMILES)
< 1 | CC1CCSC(Nc2ccc(CCNc3nc4ccccc4s3)cc2)=N1 (stereo not shown) [Example 11]
< 1 | Clc1ccc(C2CCSC(Nc3ccc(CCNc4nc5ccccc5s4)cc3)=N2)cc1 (stereo not shown) [Example 2]
